Where two headings read alike, the source gives them in different places.
Legend:
hGLP-1R = hGLP-1R (Homo sapiens, UniProt P43220); assay: Functional cAMP formation (HTRF) in HEK-293 clonal cells expressing hGLP-1R, 0.1% bovine casein, without or with 1.0% human serum albumin; type: cell-based; parameters: expressed in transfected cells; conditions: 37° C.; for EC50: read-out: hGLP-1R EC50, nM (SEM, n)
How it was run: (§1)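 Readings of the HTRF 665/620 nm ratio, which falls as cAMP rises, were converted to nM cAMP using a standard curve after 30 min peptide exposure at 37° C.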

hGIPR = molecular target: T1, hGIPR (Homo sapiens, UniProt P48546); assay: Functional cAMP formation (HTRF) in HEK-293 clonal cells expressing hGIPR, 0.1% bovine casein, without or with 1.0% human serum albumin; type: cell-based; conditions: for EC50: read-out: hGIPR EC50, nM (SEM, n); for Emax: read-out: hGIPR Emax, % ± SEM
T1 construct: expressed in transfected cells
T1 sequence (P48546 22-466): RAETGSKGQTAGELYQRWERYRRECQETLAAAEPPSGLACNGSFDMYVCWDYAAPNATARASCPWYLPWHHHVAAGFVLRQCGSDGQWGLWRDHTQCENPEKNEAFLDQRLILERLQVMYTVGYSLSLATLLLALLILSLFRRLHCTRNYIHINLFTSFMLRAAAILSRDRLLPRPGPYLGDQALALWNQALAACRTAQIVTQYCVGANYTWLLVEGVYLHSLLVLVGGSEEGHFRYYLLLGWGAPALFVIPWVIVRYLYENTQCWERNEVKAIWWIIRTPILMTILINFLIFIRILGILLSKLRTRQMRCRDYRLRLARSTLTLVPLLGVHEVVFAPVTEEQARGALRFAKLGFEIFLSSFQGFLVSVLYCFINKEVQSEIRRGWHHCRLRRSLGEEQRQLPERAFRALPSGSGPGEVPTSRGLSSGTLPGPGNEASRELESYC
How it was run: as §1

[1] = molecular target: T2, human GIP receptor (hGIPR) (Homo sapiens, UniProt P48546); assay: [125I]-GIP binding, SPA with membranes of CHO cells expressing hGIPR; conditions: human GIPR; geometric mean (SEM, n); read-out: Binding Affinity Ki, nM (SEM, n) hGIPR
T2 construct: expressed in transfected cells; crude membranes
T2 sequence (P48546 22-466): T1 sequence (P48546 22-466)
Description: Two methods are used for the preparation of crude cell membranes.
Method 1: Frozen cell pellets are lysed on ice in hypotonic buffer containing 50 mM Tris HCl, pH 7.5, and Roche Complete™ Protease Inhibitors with EDTA. […] The homogenate is centrifuged at 4° C. at 1100 × g for 10 minutes. The supernatant is collected and stored on ice while the pellets are resuspended in homogenization buffer and rehomogenized as described above. The homogenate is centrifuged at 1100 × g for 10 minutes. The second supernatant is combined with the first supernatant and centrifuged at 35000 × g for 1 hour at 4° C. The resulting membrane pellet is resuspended in homogenization buffer containing protease inhibitors at approximately 1 to 3 mg/mL, quick frozen in liquid nitrogen and stored as aliquots in a -80° C. freezer until use.
The homogenate is centrifuged at 4° C. at 1800 × g for 15 minutes. The supernatant is collected and stored on ice while the pellets are resuspended in homogenization buffer (without DNAse I) and rehomogenized as described above. The homogenate is centrifuged at 1800 × g for 15 minutes. The second supernatant is combined with the first supernatant and centrifuged an additional time at 1800 × g for 15 minutes. The overall supernatant is then centrifuged at 25000 × g for 30 minutes at 4° C. The resulting membrane pellet is resuspended in homogenization buffer (without DNAse I) containing protease inhibitors at approximately 1 to 3 mg/mL and stored as aliquots in a -80° C. freezer until use.
The binding buffer contains 25 mM HEPES, pH 7.4, 2.5 mM CaCl2, 1 mM MgCl2, 0.1% (w/v) bacitracin, 0.003% (w/v) TWEEN®-20, and Roche Complete™ Protease Inhibitors without EDTA. Peptides and GIP are thawed and 3 fold serially diluted in 100% DMSO (10 point concentration response curves). […] Plates are sealed and mixed on a plate shaker (setting 6) for 1 minute and read with a PerkinElmer Trilux MicroBeta® scintillation counter after 2.5 to 12 hours of incubation/settling time at room temperature.
Raw CPM data for concentration curves of peptides, Gcg, GLP-1, or GIP are converted to percent inhibition by subtracting nonspecific binding (binding in the presence of excess unlabeled Gcg, GLP-1, or GIP, respectively) from the individual CPM values and dividing by the total binding signal, also corrected by subtracting nonspecific binding. Data are analyzed using four-parameter (curve maximum, curve minimum, IC50, Hill slope) nonlinear regression routines (Genedata Screener, version 12.0.4, Genedata AG, Basal, Switzerland). […] Values for Ki are reported as the geometric mean, with error expressed as the standard error of the mean (SEM) and n is equal to the number of independent replicates (determined in assays performed on different days). Geometric Means are calculated as follows: […]
The Ki Ratio (Ki for native control peptide/Ki for test compound) at each receptor and each species is calculated. The Ki Ratio is a rapid indication of the apparent affinity of a peptide compared to the native control peptide.
n=⅟x means that only one value out of the total number of replicates (x) is used to express the mean. SEM is only calculated when n=2 or greater non-qualified results exist. Means are expressed as GeoMetric means with the standard error of the mean (SEM) and the number of replicates (n) indicated in parenthesis.

hGCGR = molecular target: T3, hGCGR (Homo sapiens, UniProt P47871); assay: Functional cAMP formation (HTRF) in HEK-293 clonal cells expressing hGCGR, 0.1% bovine casein, without or with 1.0% human serum albumin; type: cell-based; conditions: read-out: hGCGR EC50, nM (SEM, n)
T3 construct: expressed in transfected cells
T3 sequence (P47871 26-477): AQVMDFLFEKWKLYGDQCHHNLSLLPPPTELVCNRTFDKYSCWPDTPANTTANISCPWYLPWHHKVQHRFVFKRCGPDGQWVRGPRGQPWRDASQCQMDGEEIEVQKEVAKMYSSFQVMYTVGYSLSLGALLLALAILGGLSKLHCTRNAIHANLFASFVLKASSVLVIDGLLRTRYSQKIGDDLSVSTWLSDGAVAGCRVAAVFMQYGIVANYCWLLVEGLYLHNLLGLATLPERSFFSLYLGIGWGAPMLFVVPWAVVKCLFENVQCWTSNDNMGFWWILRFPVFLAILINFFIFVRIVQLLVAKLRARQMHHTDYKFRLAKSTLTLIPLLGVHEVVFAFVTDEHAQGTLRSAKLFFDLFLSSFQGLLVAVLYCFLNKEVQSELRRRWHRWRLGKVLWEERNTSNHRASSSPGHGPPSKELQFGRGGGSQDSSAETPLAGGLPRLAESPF
How it was run: as §1

[2] = 0.1% bovine casein and 1.0% human serum albumin, 37° C., geometric mean
[3] = cAMP, incubated at 37° C., 0.1% bovine casein (no human serum albumin), geometric mean
[4] = cAMP, 37° C., 0.1% bovine casein (no human serum albumin), geometric mean
[5] = cAMP, 37° C., 0.1% bovine casein and 1.0% human serum albumin, geometric mean (SEM, n)

hGLP-1R, sequence (P43220 24-463): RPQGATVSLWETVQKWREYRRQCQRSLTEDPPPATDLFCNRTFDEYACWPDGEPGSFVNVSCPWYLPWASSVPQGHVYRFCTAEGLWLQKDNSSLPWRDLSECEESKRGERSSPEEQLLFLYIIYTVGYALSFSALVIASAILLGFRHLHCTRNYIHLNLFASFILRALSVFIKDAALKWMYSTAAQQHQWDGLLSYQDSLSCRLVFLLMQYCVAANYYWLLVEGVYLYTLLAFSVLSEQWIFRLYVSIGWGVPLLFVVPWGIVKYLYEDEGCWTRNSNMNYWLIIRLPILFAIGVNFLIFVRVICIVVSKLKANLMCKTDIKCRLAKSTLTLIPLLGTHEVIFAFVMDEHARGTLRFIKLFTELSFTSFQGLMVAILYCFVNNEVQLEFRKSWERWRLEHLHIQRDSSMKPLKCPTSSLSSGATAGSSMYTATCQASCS

CC[C@H](C)[C@H](NC(=O)[C@H](CC(C)C)NC(=O)[C@](C)(Cc1ccc(O)cc1)NC(=O)[C@@H](CCC(=O)O)NC(=O)[C@@H](NC(=O)[C@H](Cc1ccccc1)NC(=O)[C@H](CCC(=O)O)NC(=O)C(C)(C)NC(=O)[C@H](CCC(N)=O)NC(=O)[C@H](C)NC(=O)[C@H](CCCCNC(=O)[C@@H](N)CCCCNC(=O)COCCOCCNC(=O)CC[C@H](NC(=O)CCCCCCCCCCCCC(=O)O)C(=O)O)NC(=O)[C@H](CCCN)NC(=O)[C@H](CC(=O)O)NC(=O)[C@H](CC(C)C)NC(=O)[C@](C)(CC(C)C)NC(=O)[C@@H](NC(=O)[C@H](CO)NC(=O)[C@H](Cc1ccncc1)NC(=O)[C@H](CC(=O)O)NC(=O)[C@H](CO)NC(=O)[C@@H](NC(=O)[C@](C)(Cc1ccccc1F)NC(=O)[C@@H](NC(=O)CNC(=O)[C@H](CCC(=O)O)NC(=O)C(C)(C)NC(=O)[C@@H](N)Cc1ccc(O)cc1)[C@@H](C)O)[C@@H](C)O)[C@@H](C)CC)[C@@H](C)CC)C(=O)N[C@@H](CCC(=O)O)C(=O)NCC(=O)NCC(=O)N[C@@H](CCCCNC(=O)[C@@H](N)CCCCNC(=O)COCCOCCNC(=O)CC[C@H](NC(=O)CCCCCCCCCCCCC(=O)O)C(=O)O)C(=O)N[C@@H](CO)C(=O)N[C@@H](CO)C(=O)NCC(=O)N[C@@H](C)C(=O)N1CCC[C@H]1C(=O)N1CCC[C@H]1C(=O)N1CCC[C@H]1C(=O)N[C@@H](CO)C(N)=O [Example 36]
EC50 (hGLP-1R; 0.1% bovine casein and 1.0% human serum albumin, geometric mean): 10.9 nM
EC50 (hGIPR; [2]): 0.408 nM
Emax (hGIPR; HEK293, 0.1% bovine casein and 1.0% human serum albumin, 37° C., percent of maximal response to GIP(1-42)NH2): 91.4 ± 0.667%
Emax (hGIPR; HEK293, percent of maximal response to GIP(1-42)NH2, 37° C., 0.1% bovine casein, arithmetic mean): 95.4 ± 2.02%
EC50 (hGIPR; [3]): 0.0185 nM
Ki [1]: 0.103 nM
EC50 (hGCGR; [2]): > 9950 nM
EC50 (hGCGR; [3]): > 9950 nM

CC[C@H](C)[C@H](NC(=O)[C@H](CC(C)C)NC(=O)[C@](C)(Cc1ccc(O)cc1)NC(=O)[C@H](CCCCNC(=O)COCCOCCNC(=O)COCCOCCNC(=O)COCCOCCNC(=O)CC[C@H](NC(=O)CCCCCCCCCCCCC(=O)O)C(=O)O)NC(=O)[C@@H](NC(=O)[C@H](Cc1ccccc1)NC(=O)[C@H](CCCN)NC(=O)C(C)(C)NC(=O)[C@H](CCC(N)=O)NC(=O)[C@H](C)NC(=O)[C@H](CCC(N)=O)NC(=O)[C@H](CCCN)NC(=O)[C@H](CC(=O)O)NC(=O)[C@H](CC(C)C)NC(=O)[C@](C)(CC(C)C)NC(=O)[C@@H](NC(=O)C(C)(C)NC(=O)[C@H](Cc1ccncc1)NC(=O)[C@H](CC(=O)O)NC(=O)[C@H](CO)NC(=O)[C@@H](NC(=O)[C@](C)(Cc1ccccc1F)NC(=O)[C@@H](NC(=O)CNC(=O)[C@H](CCC(=O)O)NC(=O)C(C)(C)NC(=O)[C@@H](N)Cc1ccc(O)cc1)[C@@H](C)O)[C@@H](C)O)[C@@H](C)CC)[C@@H](C)CC)C(=O)N[C@@H](CCCCNC(=O)COCCOCCNC(=O)COCCOCCNC(=O)COCCOCCNC(=O)CC[C@H](NC(=O)CCCCCCCCCCCCC(=O)O)C(=O)O)C(=O)NCC(=O)NCC(=O)N1CCC[C@H]1C(=O)N[C@@H](CO)C(=O)N[C@@H](CO)C(=O)NCC(=O)N[C@@H](C)C(=O)N1CCC[C@H]1C(=O)N1CCC[C@H]1C(=O)N1CCC[C@H]1C(=O)N[C@@H](CO)C(N)=O [Example 476]
Emax (hGLP-1R; HEK293, cAMP, 0.1% bovine casein, percent of maximal response to GLP-1(7-36)NH2, arithmetic mean, read-out: hGLP-1R Emax, % ± SEM): 114%
EC50 (hGLP-1R; cAMP, 0.1% bovine casein (no human serum albumin), geometric mean): 0.117 nM
EC50 (hGLP-1R; cAMP, 0.1% bovine casein and 1.0% human serum albumin, geometric mean (SEM, n)): 1.5 nM
Emax (hGIPR; HEK293, cAMP, 37° C., 0.1% bovine casein and 1.0% human serum albumin, percent of maximal response to GIP(1-42)NH2): 81.8%
EC50 (hGIPR; [4]): 0.00886 nM
EC50 (hGIPR; [5]): 0.154 nM
Ki [1]: 0.0351 nM
EC50 (hGCGR; [4]): > 9950 nM
EC50 (hGCGR; [5]): > 9950 nM
